Source: PubChem BioAssay (NCI)
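Cells were grown in 96-well plates and exposed to each compound for 48 hours at five concentrations; endpoints were interpolated linearly between bracketing concentrations, or set to the highest concentration if not reached. Here, GI50 denotes the concentration required for 50% inhibition of growth. The concentration for full growth arrest is given as TGI.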

Tests used:
Experiment in all cases: growth of human tumour cells (NCI), 48 h
MDA-N = system: MDA-N
T-47D breast = system: T-47D breast
HOP-18 NSCLC = system: HOP-18 NSCLC
DLD-1 colon = system: DLD-1 colon
LXFL 529 NSCLC = system: LXFL 529 NSCLC
DMS 273 small cell lung = system: DMS 273 small cell lung
SNB-78 CNS = system: SNB-78 CNS
RXF-631 renal = system: RXF-631 renal
XF 498 CNS = system: XF 498 CNS

Structure (SMILES)	TGI (T-47D breast) [µM]	GI50 (T-47D breast) [nM]	TGI (DLD-1 colon) [µM]	TGI (LXFL 529 NSCLC) [µM]	TGI (DMS 273 small cell lung) [µM]	TGI (SNB-78 CNS) [µM]	other results
C=C1C(=O)O[C@@H]2C(=O)[C@@H](C)[C@@H]3C=CC(=O)[C@@]3(C)[C@@H](OC(=O)/C(C)=C\C)[C@H]12	1.68						TGI (MDA-N): 2.99 µM
Cc1n[nH]c(=S)n1/N=C/c1ccc(F)c(Oc2ccccc2)c1	> 100	> 100000					
O=C1C(=O)N(C(=O)c2ccc(Cl)c(Cl)c2)c2ccc(Cl)cc21			> 100	> 100	> 100	> 100	TGI (HOP-18 NSCLC): > 100 µM
CCN(CC)CCOc1ccc(/C(=C(\C)Cc2ccc(OC)cc2)c2ccc(OC(=O)NCc3ccccc3)cc2)cc1	4.11	1200					
Cc1cc(O)c(C(c2cccnc2)c2c(O)cc(C)[nH]c2=O)c(=O)[nH]1	> 100						TGI (MDA-N): > 100 µM
CN1CCC[C@@H]1CCO[C@](C)(c1ccccc1)c1ccc(Cl)cc1	16.4	3290					
CCOC(=O)c1c(C)nc2ccc(Cl)cc2c1-c1ccccc1	47.8	12900					
CCOC(=O)c1ccc(N(CCOS(C)(=O)=O)CCOS(C)(=O)=O)cc1C	62.1	16600					GI50 (MDA-N): 57.8 µM; TGI (MDA-N): > 100 µM
N.N.N.N.N.N.[I-].[Os]			> 100	> 100	> 100	> 100	GI50 (HOP-18 NSCLC): > 100 µM; TGI (HOP-18 NSCLC): > 100 µM; GI50 (DLD-1 colon): > 100 µM; GI50 (LXFL 529 NSCLC): > 100 µM; GI50 (DMS 273 small cell lung): > 100 µM; GI50 (SNB-78 CNS): > 100 µM
O=C(Nc1nccs1)c1cc2c(cc1Cl)Sc1nccn1S2(=O)=O	64.5	23400					GI50 (MDA-N): 17.9 µM; TGI (MDA-N): 33.4 µM
Cn1cccc1-c1cc(-c2cccs2)[nH]c(=O)c1C#N	> 100	> 100000					
C#CCOCn1cnc2c(=S)nc[nH]c21			> 100	> 100	> 100		TGI (RXF-631 renal): > 100 µM; TGI (XF 498 CNS): > 100 µM
O=C1/C(=C\C(Cl)=C/c2ccc([N+](=O)[O-])cc2)SC(=S)N1CCc1ccc(O)cc1	4.66	1640					
COc1ccc(-c2nn(-c3cccc(NC(=O)Nc4ccc(Cl)c(C(F)(F)F)c4)c3)cc2-c2ccncc2)cc1Cl	> 100	2220					
CC1(C)OC(C(N)=O)=C(C(N)=O)O1			> 100	> 100	> 100		TGI (HOP-18 NSCLC): > 100 µM; TGI (XF 498 CNS): > 100 µM
Cc1c(C(=O)CC(=O)C(=O)Nc2ccc(Cl)c(Cl)c2)[n+](=O)c2ccccc2n1[O-]				32.4	49.9	> 100	TGI (RXF-631 renal): 60.3 µM
Cc1cccc2c(N=Nc3ccc(S(N)(=O)=O)cc3)c(O)[nH]c12	> 25	> 25000					
CCC(C)OC(=O)C1C2CCC(O2)C1C(=O)O (configuration not stated)			> 77.7	> 100	> 60.1	> 100	TGI (HOP-18 NSCLC): > 100 µM
N/C(=N\N=C\c1cccs1)NO			> 100	> 100	> 100	> 100	TGI (HOP-18 NSCLC): > 100 µM; TGI (RXF-631 renal): > 100 µM; TGI (XF 498 CNS): > 100 µM

Structure (SMILES)	TGI (T-47D breast) [µM]	GI50 (T-47D breast) [nM]	TGI (DLD-1 colon) [µM]	TGI (LXFL 529 NSCLC) [µM]	TGI (DMS 273 small cell lung) [µM]	TGI (SNB-78 CNS) [µM]	other results
COc1ccc(C(c2ccc(C(C)C)cc(=O)c2O)c2ccc3cccnc3c2O)cc1 (configuration not stated)			15.3	15.7	2.08	23.2	TGI (XF 498 CNS): 16.4 µM
CCc1ccccc1NC(=O)CCc1n[nH]c(=S)o1			> 100	> 100	> 100	> 100	TGI (HOP-18 NSCLC): > 100 µM
Cc1c2c(nn1C(=O)c1nn(-c3ccc(Cl)cc3)cc1O)-c1ccccc1CC2	> 100	59.4					
CN=C1Nc2ccc(Cl)cc2C(c2ccccc2)=NN1C			> 100	> 100	> 100	> 100	TGI (RXF-631 renal): > 100 µM; TGI (XF 498 CNS): > 100 µM
O=C1C(=O)c2ccccc2-c2ccccc21	2.72	490					
CC(=O)NC(CCCCNC(=O)N(CCCl)N=O)C(=O)NCc1ccccc1 (configuration not stated)			> 100	> 100	> 100		TGI (HOP-18 NSCLC): > 100 µM; TGI (RXF-631 renal): > 100 µM; TGI (XF 498 CNS): > 100 µM
CC(=O)OCc1cc(OC(C)=O)cnc1COC(C)=O			> 100	> 100	> 100		TGI (HOP-18 NSCLC): > 100 µM; TGI (RXF-631 renal): > 100 µM; TGI (XF 498 CNS): > 100 µM
CN[C@]12CC3(C=CC(=O)C=C3)O[C@@]1(Cc1ccc(OC)cc1)N(C)C(=O)N2	7.23	2120					
COc1cc(-c2cc(=O)c3ccccc3o2)ccc1N				> 100	> 100	> 100	TGI (HOP-18 NSCLC): > 100 µM; TGI (XF 498 CNS): > 100 µM
COc1ccc(-c2cnc3ccnn3c2-c2cc(OC)c(OC)c(OC)c2)cc1	> 100	> 100000					
ClC1CCC2OOC1O2 (configuration not stated)					> 100	> 100	
COc1cc2nc(Sc3c([N+](=O)[O-])ncn3C)[nH]c2cc1OC			46	32		> 100	TGI (HOP-18 NSCLC): > 100 µM; TGI (XF 498 CNS): 49.2 µM
O=C(O)c1ccc(O)c(N=Nc2cc(S(=O)(=O)O)c3ccccc3c2O)c1			> 100		> 100	> 100	TGI (RXF-631 renal): > 100 µM
c1cc(OCCN2CCCCCC2)ccc1CNc1ccc2nc(CCC3CCCCC3)[nH]c2c1	4.79	1720					
O=C(O)c1ccc2c(c1Nc1ccccc1)C(=O)c1ccccc1C2=O	> 100	45600					
O=c1cc(-c2ccc(Cl)cc2)[nH]c2ncccc12	> 100						GI50 (MDA-N): 8.26 µM; TGI (MDA-N): 26.1 µM
ClCc1ccc(-c2ccc(Cn3cnc4c(Cl)nc(Cl)nc43)cc2)cc1	4.64	1900					
O=c1c2ccccc2nc(-c2ccc(Br)cc2)n1NC1OC(CO)C(O)C(O)C1O (configuration not stated)				> 100	> 100	> 100	TGI (HOP-18 NSCLC): > 100 µM; TGI (RXF-631 renal): > 100 µM
O=C1N=C(c2ccccc2)OC1C(=O)c1ccccc1 (configuration not stated)	> 100						TGI (MDA-N): > 100 µM
